Molecular target: T1, α-β tubulin (β tubulin, porcine brain) (Sus scrofa, UniProt P02550+P02554)
T1 construct: α-β tubulin purified from porcine brains, labeled with RED-NHS; with α tubulin
Assay: microscale thermophoresis, labeled tubulin
Format: binding

T1 sequence (P02554 whole entry): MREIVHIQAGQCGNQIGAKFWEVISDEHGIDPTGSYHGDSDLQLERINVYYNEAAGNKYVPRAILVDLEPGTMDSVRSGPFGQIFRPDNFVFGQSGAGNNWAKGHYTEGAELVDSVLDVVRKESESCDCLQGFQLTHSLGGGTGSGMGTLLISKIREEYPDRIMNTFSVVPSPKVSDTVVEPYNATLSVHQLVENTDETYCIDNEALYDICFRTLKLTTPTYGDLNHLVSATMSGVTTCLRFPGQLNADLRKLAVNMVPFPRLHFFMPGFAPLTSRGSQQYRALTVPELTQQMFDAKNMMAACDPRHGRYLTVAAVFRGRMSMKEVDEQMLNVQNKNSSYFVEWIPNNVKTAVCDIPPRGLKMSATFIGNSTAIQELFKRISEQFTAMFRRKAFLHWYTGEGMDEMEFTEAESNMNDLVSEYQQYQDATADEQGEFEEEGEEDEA
T1 sequence (P02550 whole entry): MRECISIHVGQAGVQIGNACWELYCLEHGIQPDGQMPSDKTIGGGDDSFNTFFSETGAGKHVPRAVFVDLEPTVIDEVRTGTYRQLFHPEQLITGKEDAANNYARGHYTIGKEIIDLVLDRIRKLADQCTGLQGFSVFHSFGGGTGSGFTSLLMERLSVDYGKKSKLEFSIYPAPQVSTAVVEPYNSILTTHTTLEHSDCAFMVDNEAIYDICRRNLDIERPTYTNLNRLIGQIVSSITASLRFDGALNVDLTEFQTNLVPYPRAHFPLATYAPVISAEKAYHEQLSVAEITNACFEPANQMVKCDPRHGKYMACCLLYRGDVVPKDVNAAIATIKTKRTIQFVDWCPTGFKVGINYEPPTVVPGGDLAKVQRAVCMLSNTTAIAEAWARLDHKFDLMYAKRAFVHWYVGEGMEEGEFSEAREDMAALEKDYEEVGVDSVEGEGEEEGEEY

A Kd of 2.16 ± 0.47 µM was found for `COc1cc2c(=O)c(-c3cc(OC)c4c(c3OC)OCO4)coc2cc1OCc1ccccc1` [gatastatin] in this work.

Source: paper PMC10046562, “Computational Analysis and Experimental Testing of the Molecular Mode of Action of Gatastatin and Its Derivatives” (Cancers, 2023)
